# Reference: PMC12566046, “Arylpiperazinyl-Benzocycloheptapyrrole-Carboxamides Endowed with Dual Anticancer and Antiviral Activities” (Molecules, 2025)
# Tests used:
# [1] = test system: K-562 (leukemia cell line); test: NCI-60 single-dose assay; assay type: cell-based; settings: Homo sapiens, K562, read-out: growth inhibition (GI%) and cytotoxicity (negative values)
# Method in brief: (§1)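 Read-out is cytotoxic activity from a single-concentration test; the panel spans nine human cancer types, including leukemia, lung, colon and renal.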
# [2] = test system: 786-0 (renal cancer cell line); test: NCI-60 single-dose assay; assay type: cell-based, human
# Method in brief: as §1
# [3] = test system: BT-549 (breast cancer cell line); test: NCI-60 single-dose assay; assay type: cell-based, human; settings: Homo sapiens, BT-549, read-out: growth inhibition (GI%) and cytotoxicity (negative values)
# Method in brief: as §1
# [4] = test system: CAKI-1 (renal cancer cell line); test: NCI-60 single-dose assay; assay type: cell-based, human
# Method in brief: as §1
# [5] = test system: CCRF-CEM (leukemia cell line); test: NCI-60 single-dose assay; assay type: cell-based, human; settings: Homo sapiens, read-out: growth inhibition (GI%) and cytotoxicity (negative values)
# Method in brief: as §1
# [6] = test system: COLO 205 (colon cancer cell line); test: NCI-60 single-dose assay; assay type: cell-based, human; settings: human
# Method in brief: as §1
# [7] = test system: EKVX (non-small cell lung cancer cell line); test: NCI-60 single-dose assay; assay type: cell-based, human; settings: Homo sapiens, read-out: growth inhibition (GI%) and cytotoxicity (negative values)
# Method in brief: as §1
# [8] = test system: HCC-2998 (colon cancer cell line); test: NCI-60 single-dose assay; assay type: cell-based, human; settings: human
# Method in brief: as §1
# [9] = test system: HCT-116 (colon cancer cell line); test: NCI-60 single-dose assay; assay type: cell-based, human
# Method in brief: as §1
# [10] = test system: HCT-15 (colon cancer cell line); test: NCI-60 single-dose assay; assay type: cell-based, human
# Method in brief: as §1
# [11] = test system: HL-60(TB) (leukemia cell line); test: NCI-60 single-dose assay; assay type: cell-based, human; settings: human
# [12] = test system: HT29 (colon cancer cell line); test: NCI-60 single-dose assay; assay type: cell-based, human
# Method in brief: as §1
# [13] = test system: KM12 (colon cancer cell line); test: NCI-60 single-dose assay; assay type: cell-based, human; settings: Homo sapiens, KM12, read-out: growth inhibition (GI%) and cytotoxicity (negative values)
# Method in brief: as §1
# [14] = test system: LOX IMVI (melanoma cell line); test: NCI-60 single-dose assay; assay type: cell-based, human
# Method in brief: as §1
# M14 (melanoma cell line) = test: NCI-60 single-dose assay; assay type: cell-based, human; settings: human
# Method in brief: as §1
# [15] = test system: MALME-3M (melanoma cell line); test: NCI-60 single-dose assay; assay type: cell-based, human
# Method in brief: as §1
# [16] = test system: MCF-7 (breast cancer cell line); test: NCI-60 single-dose assay; assay type: cell-based, human; settings: Homo sapiens, MCF7, read-out: growth inhibition (GI%) and cytotoxicity (negative values), MCF-7, 10^−5 M
# Method in brief: as §1
# [17] = test system: MDA-MB-231/ATCC (breast cancer cell line); test: NCI-60 single-dose assay; assay type: cell-based, human; settings: Homo sapiens, MDA-MB-231, read-out: growth inhibition (GI%) and cytotoxicity (negative values)
# Method in brief: as §1
# [18] = test system: MDA-MB-435 (melanoma cell line); test: NCI-60 single-dose assay; assay type: cell-based, human
# Method in brief: as §1
# [19] = test system: NCI-H226 (non-small cell lung cancer cell line); test: NCI-60 single-dose assay; assay type: cell-based, human; settings: Homo sapiens, NCI-H226, read-out: growth inhibition (GI%) and cytotoxicity (negative values)
# Method in brief: as §1
# [20] = test system: NCI-H23 (non-small cell lung cancer cell line); test: NCI-60 single-dose assay; assay type: cell-based, human; settings: Homo sapiens, NCI-H23, read-out: growth inhibition (GI%) and cytotoxicity (negative values)
# Method in brief: as §1
# [21] = test system: NCI-H460 (non-small cell lung cancer cell line); test: NCI-60 single-dose assay; assay type: cell-based, human
# Method in brief: as §1
# [22] = test system: NCI-H522 (non-small cell lung cancer cell line); test: NCI-60 single-dose assay; assay type: cell-based, human; settings: Homo sapiens, NCI-H522, read-out: growth inhibition (GI%) and cytotoxicity (negative values)
# Method in brief: as §1
# [23] = test system: RPMI-8226 (leukemia cell line); test: NCI-60 single-dose assay; assay type: cell-based, human; settings: Homo sapiens, RPMI-8226, read-out: growth inhibition (GI%) and cytotoxicity (negative values)
# Method in brief: as §1
# [24] = test system: RXF 393 (renal cancer cell line); test: NCI-60 single-dose assay; assay type: cell-based, human; settings: Homo sapiens, RXF 393, read-out: growth inhibition (GI%) and cytotoxicity (negative values)
# Method in brief: as §1
# [25] = test system: SK-MEL-2 (melanoma cell line); test: NCI-60 single-dose assay; assay type: cell-based, human; settings: Homo sapiens, SK-MEL-2, read-out: growth inhibition (GI%) and cytotoxicity (negative values)
# Method in brief: as §1
# [26] = test system: SK-MEL-28 (melanoma cell line); test: NCI-60 single-dose assay; assay type: cell-based, human
# Method in brief: as §1
# [27] = test system: SN12C (renal cancer cell line); test: NCI-60 single-dose assay; assay type: cell-based, human; settings: Homo sapiens, read-out: growth inhibition (GI%) and cytotoxicity (negative values)
# Method in brief: as §1
# SR (leukemia cell line) = test: NCI-60 single-dose assay; assay type: cell-based, human
# Method in brief: as §1
# [28] = test system: SW-620 (colon cancer cell line); test: NCI-60 single-dose assay; assay type: cell-based, human
# Method in brief: as §1
# [29] = test system: T-47D (breast cancer cell line); test: NCI-60 single-dose assay; assay type: cell-based, human; settings: Homo sapiens, T47D, read-out: growth inhibition (GI%) and cytotoxicity (negative values)
# Method in brief: as §1
# [30] = test system: UACC-257 (melanoma cell line); test: NCI-60 single-dose assay; assay type: cell-based, human
# Method in brief: as §1
# [31] = test system: UACC-62 (melanoma cell line); test: NCI-60 single-dose assay; assay type: cell-based, human
# Method in brief: as §1
# [32] = test system: UO-31 (renal cancer cell line); test: NCI-60 single-dose assay; assay type: cell-based, human; settings: Homo sapiens, UO-31, read-out: growth inhibition (GI%) and cytotoxicity (negative values)
# Method in brief: as §1
# NCI-60 cell line panel = test: NCI-60 single-dose assay, whole panel; assay type: cell-based, human; settings: summary over the panel
# Method in brief: as §1
# [33] = test system: IAV strain A/PR/8/34 (H1N1); test: microbe, parasite or virus in culture; settings: Influenza A virus, MDCK, read-out: IAV/MDCK EC50
Compound,inhibition at 10 µM [1] [%],inhibition at 10 µM [3] [%],inhibition at 10 µM [5] [%],growth inhibition (GI%) and cytotoxicity (negative values) [6] [%],inhibition at 10 µM [7] [%],growth inhibition (GI%) and cytotoxicity (negative values) [8] [%],growth inhibition (GI%) and cytotoxicity (negative values) [11] [%],inhibition at 10 µM [13] [%],growth inhibition (GI%) and cytotoxicity (negative values) (M14 (melanoma cell line)) [%],inhibition at 10 µM [16] [%],inhibition at 10 µM [17] [%],inhibition at 10 µM [19] [%],inhibition at 10 µM [20] [%],inhibition at 10 µM [22] [%],inhibition at 10 µM [23] [%],inhibition at 10 µM [24] [%],inhibition at 10 µM [25] [%],inhibition at 10 µM [27] [%],inhibition at 10 µM [29] [%],inhibition at 10 µM [32] [%],other results
"CCN1CCC[C@H]1CNC(=O)c1[nH]c2c(c1Cl)CCCc1ccccc1-2 [Compound 1, (S)-3-Chloro-N-(1-ethyl-2-pyrrolidinylmethyl)-5,6-dihydro-4H-benzo[6,7]cyclohepta[1,2-b]pyrrol-2-carboxamide]",94,62.9,75.5,−52.22,68.8,−21.01,−38.55,83.8,−68.50,87.2,89,< 60,< 60,73.5,98.6,79.7,85.8,< 60,66.2,83,"growth inhibition (GI%) and cytotoxicity (negative values) ([2]; human): −22.61%; growth inhibition (GI%) and cytotoxicity (negative values) ([4]; human): −27.03%; growth inhibition (GI%) and cytotoxicity (negative values) ([9]; human): −25.27%; growth inhibition (GI%) and cytotoxicity (negative values) ([10]; human): −52.66%; growth inhibition (GI%) and cytotoxicity (negative values) ([12]; human): −32.25%; growth inhibition (GI%) and cytotoxicity (negative values) ([14]; human): −25.00%; growth inhibition (GI%) and cytotoxicity (negative values) ([15]; human): −90.67%; growth inhibition (GI%) and cytotoxicity (negative values) ([18]; human): −78.15%; growth inhibition (GI%) and cytotoxicity (negative values) ([21]; human): −54.58%; growth inhibition (GI%) and cytotoxicity (negative values) ([26]; human): −85.77%; inhibition at 10 µM (SR (leukemia cell line); Homo sapiens, read-out: growth inhibition (GI%) and cytotoxicity (negative values)): 96.3%; growth inhibition (GI%) and cytotoxicity (negative values) ([28]; human): −30.78%; growth inhibition (GI%) and cytotoxicity (negative values) ([30]; human): −55.18%; growth inhibition (GI%) and cytotoxicity (negative values) ([31]; human): −73.43%; growth inhibition (GI%) reached against cancer cell lines of the NCI-60 panel (NCI-60 cell line panel): > 90%; EC50 [33]: 17.7 µM"
CCOc1ccccc1N1CCN(CCNC(=O)c2c(Cl)[nH]c3c2CCCc2ccccc2-3)CC1 [Compound 17],100,80.7,61.6,−47.24,87.5,−35.63,−8.21,< 60,−7.74,82.2,< 60,60.4,< 60,65.7,< 60,62.1,< 60,60.7,77.6,69.3,"inhibition at 10 µM ([2]; Homo sapiens, 786-0, read-out: growth inhibition (GI%) and cytotoxicity (negative values)): < 60%; inhibition at 10 µM ([4]; Homo sapiens, CAKI-1, read-out: growth inhibition (GI%) and cytotoxicity (negative values)): 71.6%; inhibition at 10 µM ([9]; Homo sapiens, HCT-116, read-out: growth inhibition (GI%) and cytotoxicity (negative values)): 88.9%; inhibition at 10 µM ([10]; Homo sapiens, HCT-15, read-out: growth inhibition (GI%) and cytotoxicity (negative values)): 81%; inhibition at 10 µM ([12]; Homo sapiens, HT-29, read-out: growth inhibition (GI%) and cytotoxicity (negative values)): 81.5%; inhibition at 10 µM ([14]; Homo sapiens, LOX IMVI, read-out: growth inhibition (GI%) and cytotoxicity (negative values)): 74.3%; inhibition at 10 µM ([15]; Homo sapiens, Malme-3M, read-out: growth inhibition (GI%) and cytotoxicity (negative values)): 90.3%; inhibition at 10 µM ([18]; Homo sapiens, MDA-MB-435, read-out: growth inhibition (GI%) and cytotoxicity (negative values)): 69.3%; inhibition at 10 µM ([21]; Homo sapiens, NCI-H460, read-out: growth inhibition (GI%) and cytotoxicity (negative values)): 70%; inhibition at 10 µM ([26]; Homo sapiens, SK-MEL-28, read-out: growth inhibition (GI%) and cytotoxicity (negative values)): 71.5%; growth inhibition (GI%) and cytotoxicity (negative values) (SR (leukemia cell line); human): −5.19%; inhibition at 10 µM ([28]; Homo sapiens, SW-620, read-out: growth inhibition (GI%) and cytotoxicity (negative values)): < 60%; inhibition at 10 µM ([30]; Homo sapiens, UACC-257, read-out: growth inhibition (GI%) and cytotoxicity (negative values)): 72%; inhibition at 10 µM ([31]; Homo sapiens, UACC-62, read-out: growth inhibition (GI%) and cytotoxicity (negative values)): < 60%; growth inhibition (GI%) reached against cancer cell lines of the NCI-60 panel (NCI-60 cell line panel): > 90%; EC50 [33]: 34.9 µM"
